Laboratory results as given in patent publication US10189795B2, “Aryl amine substituted quinoxaline used as anticancer drugs” (priority 2014, dated 2019).

How the values were obtained:
[1] = BA (%), Table 5; settings: in vivo
[2] = test system: H358; experiment: cell viability of H358 cells, 1 and 10 uM; type: cell-based; settings: Homo sapiens, NCI-H358
[3] = test system: H2170; experiment: cell viability of H2170 cells, 1 and 10 uM; type: cell-based; settings: Homo sapiens, NCI-H2170
[4] = test system: A549; experiment: cell viability of A549 cells, 1 and 10 uM; type: cell-based; settings: Homo sapiens
[5] = test system: PLC5 xenograft tumor; experiment: PLC5 xenograft tumor growth in nude mice; type: in vivo
Procedure: Male NCr athymic nude mice (5-7 weeks of age) were obtained from the National Laboratory Animal Center (Taipei, Taiwan). All experimental procedures using these mice were performed in accordance with protocols approved by the Institutional Laboratory Animal Care and Use Committee of National Taiwan University. Each mouse was inoculated subcutaneously in the dorsal flank with 1×10^6 PLC5 or A549 cells suspended in serum-free medium containing 50% Matrigel (BD Biosciences, Bedford, Mass., USA). When tumors reached 100-150 mm^3, mice were treated with sorafenib, the erlotinib derivatives of the present invention, or vehicle (control) at 10 mg/kg/day daily by oral gavage for 4 weeks.
The present invention used a PLC5 xenograft mouse model to assess the effects of TD-52 in vivo. The present choose sorafenib as one of the comparative treatment arms. Tumor-bearing mice were administered sorafenib (10 mg/kg), TD-52 (10 mg/kg) or DMSO (vehicle, as control). […] The present invention further examined the xenografted tumors taken from mice receiving TD-52 and vehicle to confirm the molecular events in the tumor tissue. […] When PP2A activity was enhanced by TD-52, Akt was dephosphorylated, promoting HCC cell apoptosis.

[6] = molecular target: T1, SET-PP2Ac binding (Homo sapiens, UniProt Q01105); experiment: disruption of SET-PP2Ac binding (surface plasmon resonance, co-IP)
T1 construct: His; purchased Genway (SET-His); Abnova (PP2Ac-GST) GWB-ATG319; H00005515
T1 sequence (Q01105 1-277 isoform Q01105-2): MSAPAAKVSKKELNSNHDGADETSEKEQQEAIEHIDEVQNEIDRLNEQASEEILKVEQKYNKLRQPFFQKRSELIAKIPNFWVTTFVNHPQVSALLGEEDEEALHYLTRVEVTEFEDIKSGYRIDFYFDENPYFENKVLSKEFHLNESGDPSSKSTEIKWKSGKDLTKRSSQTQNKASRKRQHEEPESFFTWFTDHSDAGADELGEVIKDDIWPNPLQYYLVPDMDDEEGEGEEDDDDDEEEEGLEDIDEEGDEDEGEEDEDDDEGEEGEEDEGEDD
Procedure: Binding affinities of full-length SET and truncated SET to PP2Ac and the effect of the erlotinib derivatives of the present invention on disrupting SET and PP2Ac were analyzed. PP2Ac-GST recombinant protein was bound in the CMS chip pre-coated with GST-capture antibodies. Sensorgrams were generated by injecting several concentrations of the erlotinib derivatives of the present invention mixed with fixed-concentration of SET recombinant protein, or the mixture of different concentration of truncated SET proteins in a fixed-dose EMQA. PP2Ac-GST recombinant protein used for this experiment was purchased from Abnova (H00005515) and SET-His recombinant protein was obtained from Genway (GWB-ATG319).
EMQA reactivates PP2A by disrupting the binding of SET-PP2Ac. To validate the role of SET, the present invention generated Hep3B cells with ectopic expression of myc-tagged SET by transient transfection. […] With a fixed amount of PP2Ac coated on the CM chip, the present invention tested the effects of a fixed-dose of EMQA on interfering different proportions of full-length and truncated forms of SET proteins in SPR system. […] To validate the findings of this ex vivo system, the present invention generated cells with ectopic overexpression of these two truncated forms of Flag-tagged SET proteins by transient transfections.

[7] = test system: PLC5; experiment: MTT cell viability, PLC5; type: cell-based; settings: 48 h
Procedure: The Sk-Hep1, PLC/PRF/5 (PLC) and Hep3B cell lines were obtained from American Type Culture Collection (ATCC; Manassas, Va., USA). The Huh-7 HCC cell line was obtained from the Health Science Research Resources Bank (HSRRB; Osaka, Japan; JCRB0403). Cells were maintained in DMEM supplemented with 10% FBS in a 37° C. humidified incubator in an atmosphere of 5% CO^2 in air. Other cell lines, including non-small cell lung cancer cells e.g. H358, H460 and A549 and human squamous cell carcinoma cells e.g. NCI-1703, H2170, H520, SW900 and NCI—H226 all obtained from American Type Culture Collection (Manassas, Va.) were also provided for the assays describes below.
The present invention compared the antitumor activities of an erlotinib derivative of the present invention, TD-52, and erlotinib on HCC cells. The present invention used MTT assay to evaluate cell viability after exposure to TD-52 or erlotinib for 48 h. […] To further evaluate the cell apoptosis induced by the treatments, all four cell lines were treated with TD-52 and erlotinib at the indicated concentration for 24 h and the percentages of sub-G1 cells were determined by flow cytometry (FIG. 1B).

[8] = test system: NCI-H226; experiment: cell viability of NCI-H226 cells, 1 and 10 uM; type: cell-based; settings: Homo sapiens

## C#Cc1cccc(Nc2nc3ccccc3nc2Nc2cccc(C#C)c2)c1 [TD52, N^2,N^3-bis(3-ethynylphenyl)quinoxaline-2,3-diamine]
[1]
  BA (%): 87%
[2]; 1 uM
  viability at 1 µM: 99.8 ± 3.8%
[2]; 10 uM
  viability at 10 µM: 11.2 ± 0.7%
[3]; 1 uM
  viability at 1 µM: 100 ± 3.21%
[3]; 10 uM
  viability at 10 µM: 7.84 ± 9.49%
[4]; 1 uM
  viability at 1 µM: 71.5 ± 6%
[4]; 10 uM
  viability at 10 µM: 9.7 ± 0.9%
[5]; 10 mg/kg each, P<0.05
  inhibition of in vivo tumor growth in comparison with sorafenib: more potent inhibition of in vivo tumor growth
[5]; 10 mg/kg, oral gavage daily, 4 weeks, vs control arm
  tumor size: smaller than those of the control arm
[5]; TD-52 vs vehicle
  PP2A activity in xenograft tumor samples: enhanced PP2A activity
[6]
  minimal concentration to disrupt SET-PP2Ac binding: 100 to 200 nM
[7]
  IC50: 800 nM
[8]; 1 uM
  viability at 1 µM: 79.5 ± 6.9%
[8]; 10 uM
  viability at 10 µM: 5.3 ± 0.1%
